From patent publication EP4678638A1, “NEW E3 UBIQUITIN LIGASE LIGAND, PROTEIN DEGRADATION AGENT AND USE THEREOF” (priority 2023, dated 2024)

How the values were obtained:
CDK6 = target: T1, CDK6 (Homo sapiens, UniProt Q00534); assay: Western blot degradation of CDK6 (MDA-MB-231 Cell); format: cell-based; details: Table D3
T1 construct: evaluate the effects of the compounds of the present disclosure on the expression of target proteins in cells; endogenous in cells; host or cells: MDA-MB-231
Experimental: (§1) Conventional Western blot assay was performed to evaluate the effects of the compounds of the present disclosure on the expression of target proteins in cells.
(§2) (1) Cell Seeding and Protein Harvesting: The selected cells were processed according to the cell seeding procedure and protein harvesting procedure in Table III-2. Table III-2 Cell Seeding and Protein Harvesting Procedures
(§3) (2) To the collected supernatant, 5X SDS sample loading buffer was added, followed by denaturation at 95°C for 5 minutes. The denatured samples were then separated by SDS-PAGE electrophoresis on a polyacrylamide gel. Proteins were transferred to a nitrocellulose membrane (0.45 µm NC membrane), blocked with blocking buffer at room temperature for 1 hour, and subjected to antibody incubation and development procedures according to the antibody manufacturer's instructions (Cell Signaling Technology).
(§4) Half-Maximal Degradation Concentration value (the drug concentration required for degrading proteins by 50%, abbreviated as DC50) reads method: comparing the grayscale values of Western blot bands from drug-treated samples with those from blank DMSO-treated controls, and identifying the drug concentration range at which the grayscale value is half that of the DMSO-treated control bands.
(§5) DC50 values can be calculated using ImageJ software to measure grayscale values of Western blot bands from drug-treated samples. The concentration-response curve is fitted to estimate the drug concentration corresponding to half the grayscale value.
(§6) Target protein remaining (%) refers to the percentage of target protein remaining in hPBMC cells after treatment with protein degrader compounds.
(§7) Calculation method for target protein remaining (%): Use ImageJ software to measure grayscale values of Western blot bands from drug (protein degrader)-treated samples. The grayscale value of drug-treated bands is divided by that of internal control protein bands, and the resulting quotient is normalized to obtain the relative percentage of remaining target protein after protein degrader treatment.
(§8) Target protein degradation rate (%) = 100% - target protein remaining (%).

[1] = target: T2, human Cereblon WT GST-tagged protein (Homo sapiens, UniProt Q96SW2); assay: CRBN binding, HTRF (CEREBLON BINDING kit); details: Table II-2, CRBN binding screening, HTRF; for inhibition at 0.5 µM: read-out: Inhibition rate (%) at 0.5µM; for inhibition at 2 µM: read-out: Inhibition rate (%) at 2 µM
T2 construct: purchased CISBIO 64BDCRBNPEH
T2 sequence (Q96SW2 whole entry): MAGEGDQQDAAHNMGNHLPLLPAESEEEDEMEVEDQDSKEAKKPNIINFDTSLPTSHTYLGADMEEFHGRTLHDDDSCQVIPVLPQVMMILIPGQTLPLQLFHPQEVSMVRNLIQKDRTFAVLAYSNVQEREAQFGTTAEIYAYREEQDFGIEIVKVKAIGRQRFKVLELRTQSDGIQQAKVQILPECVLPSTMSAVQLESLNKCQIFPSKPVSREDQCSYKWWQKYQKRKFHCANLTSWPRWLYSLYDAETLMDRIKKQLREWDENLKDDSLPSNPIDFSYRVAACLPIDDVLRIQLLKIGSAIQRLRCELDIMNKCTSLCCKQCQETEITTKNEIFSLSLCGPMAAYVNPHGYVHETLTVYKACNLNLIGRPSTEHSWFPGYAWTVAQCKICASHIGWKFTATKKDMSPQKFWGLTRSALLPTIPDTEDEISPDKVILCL
Outline: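 After 3 h at room temperature, emission at 665 and 620 nm was measured in a homogeneous time-resolved fluorescence format. Compounds competed with a Thalidomide-Re probe for GST-tagged wild-type human CRBN, which was labelled with a Eu anti-GST antibody.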

CDK4 = target: T3, CDK4 (Homo sapiens, UniProt P11802); assay: Western blot degradation of CDK4 (MDA-MB-231 Cell); format: cell-based; details: Table D3
T3 construct: evaluate the effects of the compounds of the present disclosure on the expression of target proteins in cells; endogenous in cells; host or cells: MDA-MB-231
T3 sequence (P11802 whole entry): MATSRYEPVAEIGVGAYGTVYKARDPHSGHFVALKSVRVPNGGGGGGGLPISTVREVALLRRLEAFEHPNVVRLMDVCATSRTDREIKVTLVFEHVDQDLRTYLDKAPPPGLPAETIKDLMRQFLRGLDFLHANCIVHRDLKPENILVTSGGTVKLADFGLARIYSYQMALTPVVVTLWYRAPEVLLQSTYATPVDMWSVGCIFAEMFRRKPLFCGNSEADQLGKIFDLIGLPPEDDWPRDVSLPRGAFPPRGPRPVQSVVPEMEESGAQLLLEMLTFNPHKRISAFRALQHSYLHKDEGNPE
Experimental: as §1, §2, §3, §4, §5, §6, §7, §8

CCRF-CEM = assay: CCK-8 proliferation, CCRF-CEM; format: cell-based, Human; details: Homo sapiens, CCRF-CEM; CCK-8; 96 hours; read-out: Inhibitory activity (IC50) on tumor cell proliferation, CCRF-CEM
Experimental: The tumor cells used herein were cultured in a cell culture medium listed in table A1 at 37°C in an incubator with 5% CO2. Prior to experimentation, all cell lines used were correctly identified by STR profiling, and tested negative for mycoplasma contamination using a mycoplasma detection kit through routine screenings. Table A1. Tumor cells and cell culture medium used in the present disclosure
IC50 values of the compounds of the present disclosure (including the compounds in Table 1, and compounds of examples) were measured using the Meilun Cell Counting Kit-8 kit from Dalian Meilun Biotech Co., Ltd. Assay details are as follows: tumor cells were seeded in a 96-well plate at a density listed in Table A2. After 24h, 100 µL of the inoculated cells were treated with 0.5µL of the compounds of the present disclosure (including the compounds in Tables 1 and 2, and compounds of examples) at 10 different successively decreasing concentrations (starting at the highest concentration of 10µM; 5-fold serial dilutions). After the cells were treated with the compounds of the present disclosure for a period of time, the cell viability detection reagent was added to the culture medium for cell viability assessment according to the instructions provided with the CCK-8 kit. […] The growth inhibition of the compounds of the present disclosure on cells was plotted by Prism Graphpad software, and the IC50 values of the compounds of the present disclosure were calculated therefrom. […] Seeding protocol and treatment time for tumor cells

MCF7 = assay: CCK-8 proliferation, MCF7 (MCF-7); format: cell-based; details: Homo sapiens, MCF7; CCK-8; read-out: Inhibitory activity (IC50) on tumor cell proliferation, MCF7
Outline: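 Tumor cells were cultured at 37°C with 5% CO2, seeded, and after 24h treated with compounds at 10 concentrations starting at 10µM (5-fold serial dilutions).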

T1 sequence (Q00534 whole entry): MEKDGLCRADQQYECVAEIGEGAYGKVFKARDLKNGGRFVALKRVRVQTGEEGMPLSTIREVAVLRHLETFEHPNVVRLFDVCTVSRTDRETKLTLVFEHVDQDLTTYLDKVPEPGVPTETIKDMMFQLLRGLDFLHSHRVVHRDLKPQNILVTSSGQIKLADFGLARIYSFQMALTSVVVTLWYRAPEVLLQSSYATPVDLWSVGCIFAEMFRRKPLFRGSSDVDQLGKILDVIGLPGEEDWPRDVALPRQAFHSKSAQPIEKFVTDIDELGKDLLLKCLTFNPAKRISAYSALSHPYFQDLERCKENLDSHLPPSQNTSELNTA

Row | Compound | Degradation of substrate protein CDK6 (substrate protein remaining %) (CDK6) | inhibition at 0.5 µM [1] [%] | inhibition at 2 µM [1] [%] | Degradation of substrate protein CDK4 (substrate protein remaining %) (CDK4) | IC50 (CCRF-CEM) [nM] | IC50 (MCF7) [nM]
1 | CN(C)C(=O)c1cc2cnc(Nc3ccc(N4CCN(Cc5cncc(N6CCC(=O)NC6=O)c5)CC4)cn3)nc2n1C1CCCC1 [GT-07476, 7-cyclopentyl-2-((5-(4-((5-(2,4-dioxotetrahydropyrimidin-1(2H)-yl)pyridin-3-yl)methyl)piperazin-1-yl)pyridin-2-yl)amino)-N,N-dimethyl-7H-pyrrolo[2,3-d]pyrimidine-6-carboxamide] | A (A is defined as 0% ≤ substrate protein remaining % ≤ 80%) | 30 to 40 | 60 to 80 | A (A is defined as 0% ≤ substrate protein remaining % ≤ 80%) | – | –
2 | CN(C)C(=O)c1cc2cnc(Nc3ccc(N4CCN(Cc5ccnc(N6CCC(=O)NC6=O)c5)CC4)cn3)nc2n1C1CCCC1 [GT-07475, 7-cyclopentyl-2-((5-(4-((2-(2,4-dioxotetrahydropyrimidin-1(2H)-yl)pyridin-4-yl)methyl)piperazin-1-yl)pyridin-2-yl)amino)-N,N-dimethyl-7H-pyrrolo[2,3-d]pyrimidine-6-carboxamide] | A (A is defined as 0% ≤ substrate protein remaining % ≤ 80%) | – | – | A (A is defined as 0% ≤ substrate protein remaining % ≤ 80%) | 500 to 1000 | –
3 | CN(C)C(=O)c1cc2cnc(Nc3ccc(N4CCN(Cc5cncc(C6CCC(=O)NC6=O)c5)CC4)cn3)nc2n1C1CCCC1 (centres unmarked) [GT-07479, 7-cyclopentyl-2-((5-(4-((5-(2,6-dioxopiperidin-3-yl)pyridin-3-yl)methyl)piperazin-1-yl)pyridin-2-yl)amino)-N,N-dimethyl-7H-pyrrolo[2,3-d]pyrimidine-6-carboxamide] | A (A is defined as 0% ≤ substrate protein remaining % ≤ 80%) | 53 to 60 | 80 to 100 | A (A is defined as 0% ≤ substrate protein remaining % ≤ 80%) | – | –
4 | CN(C)C(=O)c1cc2cnc(Nc3ccc(N4CCN(Cc5ccc(C6CCC(=O)NC6=O)cn5)CC4)cn3)nc2n1C1CCCC1 (centres unmarked) [GT-07477, 7-cyclopentyl-2-((5-(4-((5-(2,6-dioxopiperidin-3-yl)pyridin-2-yl)methyl)piperazin-1-yl)pyridin-2-yl)amino)-N,N-dimethyl-7H-pyrrolo[2,3-d]pyrimidine-6-carboxamide] | A (A is defined as 0% ≤ substrate protein remaining % ≤ 80%) | 20 to 30 | 60 to 80 | A (A is defined as 0% ≤ substrate protein remaining % ≤ 80%) | – | –
5 | CC(=O)c1c(C)c2cnc(Nc3ccc(N4CCN(Cc5ccc(C6CCC(=O)NC6=O)cc5)CC4)cn3)nc2n(C2CCCC2)c1=O (centres unmarked) [GT-06575, 3-(4-((4-(6-((6-acetyl-8-cyclopentyl-5-methyl-7-oxo-7,8-dihydropyrido[2,3-d]pyrimidin-2-yl)amino)pyridin-3-yl)piperazin-1-yl)methyl)phenyl)piperidine-2,6-dione] | A (A is defined as 0% ≤ substrate protein remaining % ≤ 80%) | – | – | A (A is defined as 0% ≤ substrate protein remaining % ≤ 80%) | – | 100 to 500
6 | CC(=O)c1c(C)c2cnc(Nc3ccc(N4CCN(Cc5cccc(NC6CCC(=O)NC6=O)c5)CC4)cn3)nc2n(C2CCCC2)c1=O (centres unmarked) [GT-06580, 3-((3-((4-(6-((6-acetyl-8-cyclopentyl-5-methyl-7-oxo-7,8-dihydropyrido[2,3-d]pyrimidin-2-yl)amino)pyridin-3-yl)piperazin-1-yl)methyl)phenyl)amino)pip eridine-2,6-dione] | A (A is defined as 0% ≤ substrate protein remaining % ≤ 80%) | – | – | B (B is defined as substrate protein remaining % > 80%) | – | 500 to 1000
7 | CN(C)C(=O)c1cc2cnc(Nc3ccc(N4CCN(Cc5cc(N6CCC(=O)NC6=O)cnc5F)CC4)cn3)nc2n1C1CCCC1 [GT-07830, 7-cyclopentyl-2-((5-(4-((5-(2,4-dioxotetrahydropyrimidin-1(2H)-yl)-2-fluoropyridin-3-yl)methyl)piperazin-1-yl)pyridin-2-yl)amino)-N,N-dimethyl-7H-pyrrolo[2,3-d]pyrimidine-6-carboxamide] | A (A is defined as 0% ≤ substrate protein remaining % ≤ 80%) | 30 to 40 | 60 to 80 | A (A is defined as 0% ≤ substrate protein remaining % ≤ 80%) | – | –
8 | CN(C)C(=O)c1cc2cnc(Nc3ccc(N4CCN(Cc5ccc(N6CCC(=O)NC6=O)cn5)CC4)cn3)nc2n1C1CCCC1 [GT-06342, 7-cyclopentyl-2-((5-(4-((5-(2,4-dioxotetrahydropyrimidin-1(2H)-yl)pyridin-2-yl)methyl)piperazin-1-yl)pyridin-2-yl)amino)-N,N-dimethyl-7H-pyrrolo[2,3-d]pyrimidine-6-carboxamide] | A (A is defined as 0% ≤ substrate protein remaining % ≤ 80%) | – | – | A (A is defined as 0% ≤ substrate protein remaining % ≤ 80%) | – | –
9 | CC(=O)c1c(C)c2cnc(Nc3ccc(N4CCN(Cc5ccc(N6CCC(=O)NC6=O)cn5)CC4)cn3)nc2n(C2CCCC2)c1=O [GT-06578, 1-(6-((4-(6-((6-acetyl-8-cyclopentyl-5-methyl-7-oxo-7,8-dihydropyrido[2,3-d]pyrimidin-2-yl)amino)pyridin-3-yl)piperazin-1-yl)methyl)pyridin-3-yl)dihydropyrimidine-2,4(1H,3H)-dione] | A (A is defined as 0% ≤ substrate protein remaining % ≤ 80%) | – | – | B (B is defined as substrate protein remaining % > 80%) | – | 500 to 1000
10 | CN(C)C(=O)c1cc2cnc(Nc3ccc(N4CCN(Cc5ccnc(C6CCC(=O)NC6=O)c5)CC4)cn3)nc2n1C1CCCC1 (centres unmarked) [GT-07478, 7-cyclopentyl-2-((5-(4-((2-(2,6-dioxopiperidin-3-yl)pyridin-4-yl)methyl)piperazin-1-yl)pyridin-2-yl)amino)-N,N-dimethyl-7H-pyrrolo[2,3-d]pyrimidine-6-carboxamide] | A (A is defined as 0% ≤ substrate protein remaining % ≤ 80%) | – | – | A (A is defined as 0% ≤ substrate protein remaining % ≤ 80%) | – | –
